Measurements as given in ChEMBL document CHEMBL4402585 (J Med Chem, 2020).
Active and inactive are the calls of the source. No cut-off for these calls is given here.

How the values were obtained:
Kasumi 1 = test: Antiproliferative activity against human Kasumi-1 cells assessed as reduction in cell viability measured after 72 hrs by Celltitre-glo luminescence assay; assay type: functional, cell-based; conditions: Kasumi 1, 72 h
[1] = Cmax in Sprague-Dawley rat at 3 mg/kg, po by LC-MS/MS analysis; assay type: ADME, organism-based; design: dose 3 mg/kg, route oral; conditions: in vivo
[2] = Volume of distribution at steady state in Sprague-Dawley rat at 1 mg/kg, iv by LC-MS/MS analysis; assay type: ADME, organism-based; conditions: in vivo, read-out: Vdss
[3] = Half life in Sprague-Dawley rat at 1 mg/kg, iv by LC-MS/MS analysis; assay type: ADME, organism-based; conditions: in vivo
RS4-11 = test: Antiproliferative activity against human RS4:11 cells assessed as reduction in cell viability measured after 72 hrs by Celltitre-glo luminescence assay; assay type: functional, cell-based; conditions: RS4-11, 72 h
Cytochrome P450 3A4 [4] = target: T1, Cytochrome P450 3A4 (Homo sapiens, UniProt P08684); test: Inhibition of CYP3A4 in human liver microsomes using testosterone as substrate preincubated for 10 mins followed by NADPH addition and measured after 15 mins by LC-MS/MS analysis; assay type: ADME
T1 sequence (P08684 whole entry): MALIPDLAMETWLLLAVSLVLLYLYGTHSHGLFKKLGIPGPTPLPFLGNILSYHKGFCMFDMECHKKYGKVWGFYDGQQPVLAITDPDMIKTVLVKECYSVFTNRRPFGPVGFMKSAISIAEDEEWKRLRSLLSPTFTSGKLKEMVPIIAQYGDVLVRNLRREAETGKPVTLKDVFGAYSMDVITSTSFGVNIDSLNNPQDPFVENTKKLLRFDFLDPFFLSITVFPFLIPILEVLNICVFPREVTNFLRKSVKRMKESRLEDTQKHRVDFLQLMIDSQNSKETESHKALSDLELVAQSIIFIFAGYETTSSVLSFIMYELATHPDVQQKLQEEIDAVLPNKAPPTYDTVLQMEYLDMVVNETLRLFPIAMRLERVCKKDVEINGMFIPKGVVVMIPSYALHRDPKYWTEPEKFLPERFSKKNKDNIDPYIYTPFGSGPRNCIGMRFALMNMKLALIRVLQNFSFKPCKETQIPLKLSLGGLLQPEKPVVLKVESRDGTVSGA

[5] = Half life in mouse at 3 mg/kg, po by LC-MS/MS analysis; assay type: ADME, organism-based; conditions: in vivo
[6] = Half life in mouse liver microsomes at 0.1 uM preincubated for 10 mins followed by NADPH addition and measured up to 60 mins by LC-MS/MS analysis; assay type: ADME, Microsome
[7] = Clearance in mouse at 3 mg/kg, iv by LC-MS/MS analysis; assay type: ADME, organism-based; conditions: in vivo
[8] = Clearance in human liver microsomes at 0.1 uM preincubated for 10 mins followed by NADPH addition and measured up to 60 mins by LC-MS/MS analysis; assay type: ADME, Microsome; conditions: 1 h
[9] = Clearance in dog liver microsomes at 0.1 uM preincubated for 10 mins followed by NADPH addition and measured up to 60 mins by LC-MS/MS analysis; assay type: ADME, Canis lupus familiaris, Microsome; conditions: 1 h
[10] = target: Histone acetyltransferase p300 (Homo sapiens, UniProt Q09472); test: Inhibition of MSGRGK(Ac)-GGK(Ac)GLGK(Ac)GGAKRHR-biotin binding to EP300 (1040 to 1160 residues) (unknown origin) expressed in Escherichia coli BL21 (DE3) by Alphascreen assay
[11] = target: Voltage-gated inwardly rectifying potassium channel KCNH2 (Homo sapiens, UniProt Q12809); test: Inhibition of human ERG at 40 uM by Qpatch automatic patch clamp method
Voltage-gated inwardly rectifying potassium channel KCNH2, sequence (Q12809 whole entry): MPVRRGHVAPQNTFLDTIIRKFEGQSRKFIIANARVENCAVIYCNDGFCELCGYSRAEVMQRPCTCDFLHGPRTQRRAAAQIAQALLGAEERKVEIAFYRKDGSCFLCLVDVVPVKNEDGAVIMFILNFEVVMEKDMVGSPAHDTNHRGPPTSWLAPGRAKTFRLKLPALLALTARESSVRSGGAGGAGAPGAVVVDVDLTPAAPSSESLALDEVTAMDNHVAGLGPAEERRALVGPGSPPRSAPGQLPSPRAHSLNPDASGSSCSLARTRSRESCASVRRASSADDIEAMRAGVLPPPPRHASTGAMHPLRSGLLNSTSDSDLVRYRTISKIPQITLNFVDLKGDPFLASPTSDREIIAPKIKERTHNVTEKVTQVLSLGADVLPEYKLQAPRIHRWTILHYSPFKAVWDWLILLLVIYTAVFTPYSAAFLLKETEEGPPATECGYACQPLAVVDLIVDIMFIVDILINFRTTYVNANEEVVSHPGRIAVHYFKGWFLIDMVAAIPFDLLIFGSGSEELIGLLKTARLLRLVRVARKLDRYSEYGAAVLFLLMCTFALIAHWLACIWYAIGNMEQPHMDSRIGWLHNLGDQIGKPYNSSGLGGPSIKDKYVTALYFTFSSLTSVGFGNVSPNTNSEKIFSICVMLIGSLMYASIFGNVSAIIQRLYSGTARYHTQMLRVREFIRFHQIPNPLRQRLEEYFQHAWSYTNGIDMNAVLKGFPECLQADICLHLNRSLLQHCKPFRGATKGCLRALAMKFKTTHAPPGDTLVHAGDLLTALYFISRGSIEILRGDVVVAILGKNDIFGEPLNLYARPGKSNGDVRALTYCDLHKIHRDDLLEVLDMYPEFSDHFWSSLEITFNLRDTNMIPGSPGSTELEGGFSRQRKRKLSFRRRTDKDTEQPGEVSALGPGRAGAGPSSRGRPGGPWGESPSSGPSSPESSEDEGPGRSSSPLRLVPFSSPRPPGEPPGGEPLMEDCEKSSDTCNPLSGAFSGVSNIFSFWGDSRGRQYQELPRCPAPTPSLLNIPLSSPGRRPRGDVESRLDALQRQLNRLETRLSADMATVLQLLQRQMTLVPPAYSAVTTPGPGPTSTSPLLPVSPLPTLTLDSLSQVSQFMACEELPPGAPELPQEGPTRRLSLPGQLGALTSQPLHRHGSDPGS

Cytochrome P450 3A4 [12] = target: T1, Cytochrome P450 3A4; test: Inhibition of CYP3A4 in human liver microsomes using midazolam as substrate preincubated for 10 mins followed by NADPH addition and measured after 15 mins by LC-MS/MS analysis; assay type: ADME
[13] = Cmax in mouse at 3 mg/kg, po by LC-MS/MS analysis; assay type: ADME, organism-based; design: dose 3 mg/kg, route oral; conditions: in vivo
MV4-11 [14] = test: Cell cycle arrest in human MV4-11 cells assessed as increase in accumulation at G1-phase at 31.25 nM measured after 24 hrs by propidium iodide staining based flow cytometry; assay type: functional
[15] = Clearance in Sprague-Dawley rat at 1 mg/kg, iv by LC-MS/MS analysis; assay type: ADME, organism-based; conditions: in vivo
[16] = target: Bromodomain-containing protein 4 (Homo sapiens, UniProt O60885); test: Inhibition of BRD4 in human MV4-11 cells assessed as up regulation of p21 expression measured after 6 to 24 hrs by Western blot analysis; assay type: cell-based
[17] = Clearance in monkey liver microsomes at 0.1 uM preincubated for 10 mins followed by NADPH addition and measured up to 60 mins by LC-MS/MS analysis; assay type: ADME, Macaca mulatta, Microsome; conditions: rhesus monkey, 1 h
[18] = Volume of distribution at steady state in mouse at 3 mg/kg, iv by LC-MS/MS analysis; assay type: ADME, organism-based; conditions: in vivo, read-out: Vdss
[19] = Half life in human liver microsomes at 0.1 uM preincubated for 10 mins followed by NADPH addition and measured up to 60 mins by LC-MS/MS analysis; assay type: ADME, Microsome
[20] = AUC (0 to t) in mouse at 3 mg/kg, po by LC-MS/MS analysis; assay type: ADME, organism-based; conditions: in vivo
[21] = Toxicity in human MV4-11 cells xenografted mouse assessed as change in body weight at 6.25 to 12.5 mg/kg, po administered for 28 days and measured every 2 to 3 days during compound dosing; assay type: organism-based; conditions: in vivo
[22] = target: Bromodomain-containing protein 3 (Homo sapiens, UniProt Q15059); test: Binding affinity to human partial length BRD3 BD2 (G306 to P416 residues) expressed in bacterial expression system by bromoscan assay
Bromodomain-containing protein 3, sequence (Q15059 whole entry, the tested form may be a part): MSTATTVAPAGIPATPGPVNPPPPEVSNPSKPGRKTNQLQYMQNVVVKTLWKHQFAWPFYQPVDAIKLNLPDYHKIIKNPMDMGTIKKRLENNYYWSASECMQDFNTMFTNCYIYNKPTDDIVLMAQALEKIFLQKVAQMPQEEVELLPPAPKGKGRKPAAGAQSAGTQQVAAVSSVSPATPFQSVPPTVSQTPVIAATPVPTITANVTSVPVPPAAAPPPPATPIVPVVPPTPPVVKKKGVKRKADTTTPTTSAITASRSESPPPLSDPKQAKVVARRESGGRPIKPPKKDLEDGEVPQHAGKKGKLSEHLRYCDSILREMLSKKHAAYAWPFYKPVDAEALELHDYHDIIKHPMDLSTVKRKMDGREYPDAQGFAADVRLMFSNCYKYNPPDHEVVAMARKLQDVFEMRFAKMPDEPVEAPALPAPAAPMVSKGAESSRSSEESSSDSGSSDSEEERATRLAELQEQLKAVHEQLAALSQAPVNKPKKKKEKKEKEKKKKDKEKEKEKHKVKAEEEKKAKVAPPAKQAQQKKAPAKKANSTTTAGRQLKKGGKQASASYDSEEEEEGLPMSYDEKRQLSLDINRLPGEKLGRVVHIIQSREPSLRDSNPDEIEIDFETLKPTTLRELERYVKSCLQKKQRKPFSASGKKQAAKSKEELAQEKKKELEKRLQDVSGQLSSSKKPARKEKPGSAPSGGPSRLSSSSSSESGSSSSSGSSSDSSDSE

Cytochrome P450 2D6 = Cytochrome P450 2D6 (Homo sapiens, UniProt P10635); test: Inhibition of CYP2D6 in human liver microsomes using dextromethorphan as substrate preincubated for 10 mins followed by NADPH addition and measured after 15 mins by LC-MS/MS analysis; assay type: ADME
Cytochrome P450 2D6, sequence (P10635 whole entry, the tested form may be a part, canonical isoform): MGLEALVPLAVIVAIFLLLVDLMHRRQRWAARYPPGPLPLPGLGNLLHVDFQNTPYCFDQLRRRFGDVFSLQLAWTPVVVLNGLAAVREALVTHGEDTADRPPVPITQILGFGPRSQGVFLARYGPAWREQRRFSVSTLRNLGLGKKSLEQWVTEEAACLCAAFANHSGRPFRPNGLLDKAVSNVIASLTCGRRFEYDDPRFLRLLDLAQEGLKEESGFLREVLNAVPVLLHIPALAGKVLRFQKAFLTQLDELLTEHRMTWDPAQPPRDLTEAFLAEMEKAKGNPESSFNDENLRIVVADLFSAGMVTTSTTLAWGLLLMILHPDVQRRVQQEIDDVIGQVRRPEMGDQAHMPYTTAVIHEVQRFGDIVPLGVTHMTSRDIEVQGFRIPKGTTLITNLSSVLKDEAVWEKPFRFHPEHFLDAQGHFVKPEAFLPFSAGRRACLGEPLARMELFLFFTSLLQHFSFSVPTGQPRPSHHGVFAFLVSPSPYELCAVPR

[23] = target: Bromodomain-containing protein 2 (Homo sapiens, UniProt P25440); test: Binding affinity to human partial length BRD2 BD2 isoform 1 (E348 to D455 residues) expressed in bacterial expression system by bromoscan assay
Bromodomain-containing protein 2, sequence (P25440 whole entry, the tested form may be a part, canonical isoform): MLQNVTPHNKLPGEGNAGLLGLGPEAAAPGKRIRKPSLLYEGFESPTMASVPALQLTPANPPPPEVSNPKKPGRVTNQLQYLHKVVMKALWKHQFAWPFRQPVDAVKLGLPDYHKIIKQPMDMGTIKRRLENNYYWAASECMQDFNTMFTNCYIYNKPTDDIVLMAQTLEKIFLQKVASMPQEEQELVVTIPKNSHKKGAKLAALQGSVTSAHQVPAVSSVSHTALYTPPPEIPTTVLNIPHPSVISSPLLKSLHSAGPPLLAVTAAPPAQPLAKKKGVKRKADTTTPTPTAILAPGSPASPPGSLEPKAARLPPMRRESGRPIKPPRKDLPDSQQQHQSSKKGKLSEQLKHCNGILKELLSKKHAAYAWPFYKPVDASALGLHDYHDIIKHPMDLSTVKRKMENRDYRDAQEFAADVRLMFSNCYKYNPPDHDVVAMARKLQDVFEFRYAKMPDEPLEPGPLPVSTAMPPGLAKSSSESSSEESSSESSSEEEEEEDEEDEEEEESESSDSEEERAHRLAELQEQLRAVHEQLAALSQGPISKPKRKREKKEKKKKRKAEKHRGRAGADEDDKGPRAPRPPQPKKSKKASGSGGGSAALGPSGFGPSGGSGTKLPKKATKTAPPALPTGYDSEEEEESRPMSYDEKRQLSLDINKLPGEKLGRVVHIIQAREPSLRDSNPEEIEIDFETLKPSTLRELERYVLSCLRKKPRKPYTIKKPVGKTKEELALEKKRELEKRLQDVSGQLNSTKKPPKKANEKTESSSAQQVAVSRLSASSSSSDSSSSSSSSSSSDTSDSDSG

MV4-11 [24] = test: Antiproliferative activity against human MV4-11 cells assessed as reduction in cell viability measured after 72 hrs by Celltitre-glo luminescence assay; assay type: functional, cell-based; conditions: MV4-11, 72 h
[25] = Half life in Sprague-Dawley rat at 3 mg/kg, po by LC-MS/MS analysis; assay type: ADME, organism-based; conditions: in vivo
Cytochrome P450 2C9 = Cytochrome P450 2C9 (Homo sapiens, UniProt P11712); test: Inhibition of CYP2C9 in human liver microsomes using tolbutamide as substrate preincubated for 10 mins followed by NADPH addition and measured after 15 mins by LC-MS/MS analysis; assay type: ADME
Cytochrome P450 2C9, sequence (P11712 whole entry): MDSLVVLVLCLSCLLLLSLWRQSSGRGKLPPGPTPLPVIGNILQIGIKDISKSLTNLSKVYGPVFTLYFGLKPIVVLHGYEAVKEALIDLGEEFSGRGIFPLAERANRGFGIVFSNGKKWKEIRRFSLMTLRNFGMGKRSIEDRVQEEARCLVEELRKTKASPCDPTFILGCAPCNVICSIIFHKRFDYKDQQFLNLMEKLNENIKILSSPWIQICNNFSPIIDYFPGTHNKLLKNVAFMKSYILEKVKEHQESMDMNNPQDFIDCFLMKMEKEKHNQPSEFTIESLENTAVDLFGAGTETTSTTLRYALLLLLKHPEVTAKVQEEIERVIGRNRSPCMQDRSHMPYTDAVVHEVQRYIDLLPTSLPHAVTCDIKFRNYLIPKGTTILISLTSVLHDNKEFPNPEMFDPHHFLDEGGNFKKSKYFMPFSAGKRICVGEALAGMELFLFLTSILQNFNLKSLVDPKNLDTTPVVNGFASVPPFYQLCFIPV

[26] = Clearance in rat liver microsomes at 0.1 uM preincubated for 10 mins followed by NADPH addition and measured up to 60 mins by LC-MS/MS analysis; assay type: ADME, Microsome; conditions: 1 h
Cytochrome P450 1A2 = target: T2, Cytochrome P450 1A2 (Homo sapiens, UniProt P05177); test: Inhibition of CYP1A2 in human liver microsomes using phenacetin as substrate preincubated for 10 mins followed by NADPH addition and measured after 15 mins by LC-MS/MS analysis; assay type: ADME
T2 sequence (P05177 whole entry): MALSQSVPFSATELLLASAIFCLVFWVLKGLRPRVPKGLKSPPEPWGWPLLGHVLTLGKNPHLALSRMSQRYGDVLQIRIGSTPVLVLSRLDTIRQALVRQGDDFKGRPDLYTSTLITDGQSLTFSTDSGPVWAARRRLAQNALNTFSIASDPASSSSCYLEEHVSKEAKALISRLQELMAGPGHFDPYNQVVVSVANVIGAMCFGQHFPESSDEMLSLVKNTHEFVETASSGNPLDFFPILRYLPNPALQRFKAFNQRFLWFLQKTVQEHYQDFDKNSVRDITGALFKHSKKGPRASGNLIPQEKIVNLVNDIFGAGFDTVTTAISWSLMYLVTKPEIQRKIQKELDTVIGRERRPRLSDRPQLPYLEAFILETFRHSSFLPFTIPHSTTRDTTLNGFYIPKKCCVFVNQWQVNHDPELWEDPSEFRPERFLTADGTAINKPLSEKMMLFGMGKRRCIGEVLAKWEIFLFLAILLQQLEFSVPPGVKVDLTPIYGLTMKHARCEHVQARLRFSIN

- Cmax [1]: 159 ng/mL
- Vd [2]: 1.46 L/kg
- half-life [3]: 1.3 h
- IC50 (RS4-11): 22.1 nM
- IC50 (Cytochrome P450 3A4 [4]): > 20000 nM
- half-life [5]: 1.3 h
- half-life at 0.1 µM [6]: 1.38 h
- clearance [7]: 15.3 mL/min/kg
- Microsomal intrinsic clearance [8]: 12.2 mL/min/g
- CLH [9]: 25.2 mL/min/g
- IC50 [10]: 3860 nM
- IC50 (Cytochrome P450 3A4 [12]): > 20000 nM
- Cmax [13]: 399 ng/mL
- clearance [15]: 21.5 mL/min/kg
- inhibition [16]: Dose-dependent effect
- CLH [17]: 42.7 mL/min/g
- Vd [18]: 0.782 L/kg
- half-life at 0.1 µM [19]: 2.87 h
- AUC(0-t) [20]: 1710 ng·h/mL
- Kd [22]: 1 nM
- IC50 (Cytochrome P450 2D6): > 20000 nM
- Kd [23]: 1.3 nM
- IC50 (MV4-11 [24]): 2.4 nM
- half-life [25]: 3.6 h
- IC50 (Cytochrome P450 2C9): > 20000 nM
- Intrinsic clearance [26]: 64.8 mL/min/g
- IC50 (Cytochrome P450 1A2): > 20000 nM
SMILES: CCS(=O)(=O)Cc1cnc(Oc2ccc(F)cc2F)c(-c2cc(C)c3c(=O)[nH]ccn23)c1
- IC50 (Kasumi 1): 7.4 nM
- inhibition (INH) [11]: Not Active
- Activity (MV4-11 [14]): Active
- Activity [21]: Non-Toxic
